Reference: US6802957B2, “Self-referencing enzyme-based microsensor and method of use” (priority 2001, dated 2004)

Test system: pancreatic HIT cells (β-cell clusters)
Assay type: cell-based, hamster
Procedure: For trypsinization and splitting, trypsin-EDTA solution was added to a culture flask and incubated for 30 s while triturating with a transfer pipette. Serum was added to stop the digestive action of trypsin. Supernatant was removed after centrifugation at 1000 rpm for 2 min. Culture medium was added, and cells plated into glass bottom petri dishes (35 mm diameter, Matek, Ashland, Mass.) for incubation and subsequent observation.
Cell clusters, approximating to spheroids, appeared approximately two weeks after splitting. Their size ranged from 70 μm to 300 μm in diameter, depending on the time in culture.
A glucose microsensor was positioned adjacent to the cluster and self-referenced perpendicularly to the contour of the expected glucose gradient. The glucose sensor was self-referenced at 0.2 Hz between 60 and 80 μm (Δr of 20 μm) from the cluster surface to avoid H2O2 boundary artifacts. Flux measurements were done in HEPES-buffered solution containing 118 mM NaCl, 5.4 mM KCl, 2.4 mM CaCl2, 1.2 mM MgSO4, 1.2 mM KH2PO4, and 5 mM NaHCO3. All measurements were made with 5 mM glucose in the medium. To ensure that the apparent glucose signal was due to the glucose gradient and not the oxygen gradient, oxygen was provided by a ˜10 μm pipette located 10 μm from the cell cluster and approximately 50 μm from the glucose sensor to reverse the biological oxygen gradient. […] In situ calibration of the sensor was performed immediately after the flux measurements. Data were only accepted if sensor drift was less than ±5% over the experimental period, which was typically 30 min. All data were reported as means ±SEM unless otherwise mentioned.
The glucose sensor was self-referenced at 0.2 Hz between 60 and 80 μm (Δr of 20 μm) from the cluster surface. The aliquot of FCCP was dropped on the meniscus of the medium to minimize disturbance of the existing glucose gradient. All measurements were performed with 5 mM glucose in the bath.
Glucose metabolism was further studied with rotenone, an inhibitor of NADH-dependent respiration in mitochondria. […]

C=C(C)[C@H]1Cc2c(ccc3c2O[C@@H]2COc4cc(OC)c(OC)cc4[C@@H]2C3=O)O1 [Rotenone, rotenone]
decrease in the level of glucose consumption (10 μM rotenone, after 10 min, 5 mM glucose in bath, oxygen source present, four clusters): 74±5%

trifluoromethoxy carbonylcyanide phenylhydrazine [FCCP]
glucose flux relative to the basal condition: 56±6 % of the basal condition
initial increase in glucose flux: 93±16%
